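Growth conditions: 96-well plates. Treatment: test compound, 48 hours, 5 concentrations. Analysis: linear interpolation between bracketing concentrations; unreached endpoints set to highest concentration. GI50 = concentration required for 50% inhibition of growth.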 Activity calls are given as the source filed them. Cut-off read from the data, not from the text of the source: active = GI50 up to about 1.1 µM and inactive = higher.
Columns and labels:
Assay in all cases: growth of human tumour cells (NCI), 48 h
[1] = test system: CCRF-CEM
[2] = test system: COLO 205
[3] = test system: HL-60
[4] = test system: HOP-92
[5] = test system: HT-29
[6] = test system: IGROV-1
[7] = test system: LOX IMVI
[8] = test system: M14
[9] = test system: NCI-H460
[10] = test system: OVCAR-3
[11] = test system: OVCAR-5
[12] = test system: SF-268
[13] = test system: SF-539
[14] = test system: SK-MEL-2
[15] = test system: BT-549
[16] = test system: Hs-578T
[17] = test system: T47D
[18] = test system: UACC-257
[19] = test system: MCF7

SMILES | GI50 [1] | GI50 [2] | GI50 [3] | GI50 [4] | GI50 [5] | GI50 [6] | GI50 [7] | GI50 [8] | GI50 [9] | GI50 [10] | GI50 [11] | GI50 [12] | GI50 [13] | GI50 [14] | GI50 [15] | GI50 [16] | GI50 [17] | GI50 [18] | GI50 [19]
COc1cc2c(c(OC)c1OC)-c1ccc(OC)c(=O)cc1[C@@H](N(C)C=O)CC2 | 0.0164 µM (active) | 0.0129 µM (active) | 0.0158 µM (active) | 0.0137 µM (active) | 0.0156 µM (active) | 0.0262 µM (active) | 0.0249 µM (active) | < 0.0122 µM (active) | < 0.0179 µM (active) | 0.0112 µM (active) | > 8.51 µM (inactive) | 0.0219 µM (active) | 0.0148 µM (active) | 0.0135 µM (active) |  |  |  |  | 
CCOC(=O)c1c(N2CCCC2)ncn(-c2ccccc2)c1=S | > 100 µM (inactive) | > 100 µM (inactive) | > 100 µM (inactive) | > 100 µM (inactive) | > 100 µM (inactive) | > 100 µM (inactive) | > 100 µM (inactive) | > 100 µM (inactive) | > 100 µM (inactive) | 49.4 µM (inactive) | > 100 µM (inactive) | 28.4 µM (inactive) | > 100 µM (inactive) | > 100 µM (inactive) | > 100 µM (inactive) | > 100 µM (inactive) | > 100 µM (inactive) | > 100 µM (inactive) | 
CCCCCCCN(CCCCCCC)CC(O)c1cc2ccccc2c2cc(Br)ccc12 (stereo not given) | 40.9 µM (inactive) | 24.8 µM (inactive) | 39.2 µM (inactive) | 19.2 µM (inactive) | 67 µM (inactive) | 62.1 µM (inactive) | 14.2 µM (inactive) | 22.6 µM (inactive) | 23.1 µM (inactive) | 17.9 µM (inactive) | > 100 µM (inactive) | 19 µM (inactive) | > 100 µM (inactive) | 33.1 µM (inactive) |  |  | 43 µM (inactive) | 40.4 µM (inactive) | 12.7 µM (inactive)
C[NH+]1[C@@H](Cc2ccccc2)C(=O)O[B-]1(F)c1ccccc1 (stereo not given in full) | > 100 µM (inactive) | > 100 µM (inactive) | > 100 µM (inactive) | > 100 µM (inactive) | > 100 µM (inactive) | > 100 µM (inactive) |  | > 100 µM (inactive) | > 100 µM (inactive) | > 100 µM (inactive) | > 100 µM (inactive) | > 100 µM (inactive) |  |  | > 100 µM (inactive) |  | > 100 µM (inactive) | > 100 µM (inactive) | > 100 µM (inactive)
O=C1NC(=O)C2=C1CCC2O (stereo not given) | > 100 µM (inactive) | > 100 µM (inactive) | > 100 µM (inactive) | > 100 µM (inactive) | > 100 µM (inactive) | > 100 µM (inactive) | > 100 µM (inactive) | > 100 µM (inactive) | > 100 µM (inactive) | > 100 µM (inactive) | > 100 µM (inactive) | > 100 µM (inactive) | > 100 µM (inactive) | > 100 µM (inactive) |  | > 100 µM (inactive) | > 100 µM (inactive) | > 100 µM (inactive) | > 100 µM (inactive)
O=C1/C(=C/c2cccs2)NC(=S)N1CN1CCCC(CO)C1 (stereo not given) | > 100 µM (inactive) | > 100 µM (inactive) |  | > 100 µM (inactive) | > 100 µM (inactive) | > 100 µM (inactive) | > 100 µM (inactive) | > 100 µM (inactive) |  | > 100 µM (inactive) | > 100 µM (inactive) | > 100 µM (inactive) |  | > 100 µM (inactive) |  | > 100 µM (inactive) |  | > 100 µM (inactive) | > 100 µM (inactive)
Cc1ccc(S(=O)(=O)N(CCNC(=O)c2cccc(O)c2O)c2cc3c4c(c2)Oc2cccc5c2C4(C)c2c(cccc2O3)O5)cc1 |  |  |  |  | > 100 µM (inactive) | 5.93 µM (inactive) | 6.08 µM (inactive) | > 100 µM (inactive) | > 100 µM (inactive) | 6.52 µM (inactive) | 64.7 µM (inactive) | 15.1 µM (inactive) | 73.3 µM (inactive) | > 100 µM (inactive) |  | > 100 µM (inactive) | 6.17 µM (inactive) | > 100 µM (inactive) | 29.9 µM (inactive)
COc1ccc(Nc2nc3ccc(C(F)(F)F)cc3nc2C(=O)O)cc1OC |  | 43 µM (inactive) | 29.9 µM (inactive) |  | 38.4 µM (inactive) | 34.3 µM (inactive) | 28.8 µM (inactive) |  | 21.2 µM (inactive) | 17.9 µM (inactive) | 47 µM (inactive) | 34.1 µM (inactive) |  | 17.2 µM (inactive) | 22.5 µM (inactive) | 38.6 µM (inactive) |  | 30.6 µM (inactive) | 33.9 µM (inactive)
CC[C@H](CO)Nc1nc(NCc2ccccc2)c2ncn(C(C)C)c2n1 [SELICICLIB] | > 100 µM (inactive) | 11.6 µM (inactive) | 21.7 µM (inactive) | 50.9 µM (inactive) | 20 µM (inactive) | 5.78 µM (inactive) | 14 µM (inactive) | 27.9 µM (inactive) | 27.9 µM (inactive) | 11.5 µM (inactive) | 42.8 µM (inactive) | 19.8 µM (inactive) | 15.8 µM (inactive) | 17.5 µM (inactive) |  |  | 16.3 µM (inactive) |  | 13.5 µM (inactive)
CC(=O)N1C(=O)c2cc3ccccc3cc21 | 78.2 µM (inactive) | > 100 µM (inactive) | > 100 µM (inactive) | 62.7 µM (inactive) |  | 38.8 µM (inactive) | > 100 µM (inactive) | > 100 µM (inactive) | > 100 µM (inactive) |  | > 100 µM (inactive) | > 100 µM (inactive) | > 100 µM (inactive) | > 100 µM (inactive) |  | > 100 µM (inactive) | > 100 µM (inactive) |  | 31.3 µM (inactive)
CCN(CCCOc1ccccc1)CCN(CC)CCCOc1ccccc1 | 0.71 µM (active) | 5.86 µM (inactive) | 7.46 µM (inactive) |  | 7.59 µM (inactive) | 10.9 µM (inactive) | 10.8 µM (inactive) | 11.5 µM (inactive) | 8.38 µM (inactive) | 14.8 µM (inactive) | 17 µM (inactive) | 12.6 µM (inactive) | 10.7 µM (inactive) | 17.9 µM (inactive) | 14.3 µM (inactive) | 13.5 µM (inactive) |  | 16.2 µM (inactive) | 30.8 µM (inactive)
COc1ccc(-c2c3c(n(C4OC(CO)C(O)C(O)C4O)c(=S)c2C#N)CCCC3)cc1 (stereo not given) | 52 µM (inactive) | > 100 µM (inactive) | 72.9 µM (inactive) |  | > 100 µM (inactive) | > 100 µM (inactive) | > 100 µM (inactive) | > 100 µM (inactive) | > 100 µM (inactive) | > 100 µM (inactive) | > 100 µM (inactive) |  | > 100 µM (inactive) | > 100 µM (inactive) |  | > 100 µM (inactive) | 58.5 µM (inactive) | > 100 µM (inactive) | > 100 µM (inactive)
CC(=O)N(CN1C(=O)CCC1C(=O)O)c1ccccc1Cl (stereo not given) | > 100 µM (inactive) | > 100 µM (inactive) | > 100 µM (inactive) | > 100 µM (inactive) | > 100 µM (inactive) | > 100 µM (inactive) | > 100 µM (inactive) | > 100 µM (inactive) | > 100 µM (inactive) | > 100 µM (inactive) | > 100 µM (inactive) | > 100 µM (inactive) | > 100 µM (inactive) | > 100 µM (inactive) |  | > 100 µM (inactive) | > 100 µM (inactive) | > 100 µM (inactive) | > 100 µM (inactive)
Oc1ccc2ccccc2c1/N=N/c1cc(Cl)ccc1Cl | 17.9 µM (inactive) | 23.3 µM (inactive) | 22.6 µM (inactive) | 22.3 µM (inactive) | 19.3 µM (inactive) | 7.67 µM (inactive) |  | 14.6 µM (inactive) |  | 19.5 µM (inactive) | 11.7 µM (inactive) | 17.1 µM (inactive) |  | 28.4 µM (inactive) | > 50 µM (inactive) | 10.1 µM (inactive) |  | > 50 µM (inactive) | 
COc1c(C2(c3ccc(F)cc3)SCCCS2)c(=O)c1=O | > 100 µM (inactive) | > 100 µM (inactive) | 31.6 µM (inactive) | > 100 µM (inactive) | > 100 µM (inactive) |  | > 100 µM (inactive) | > 100 µM (inactive) | > 100 µM (inactive) | > 100 µM (inactive) | > 100 µM (inactive) | > 100 µM (inactive) | > 100 µM (inactive) | > 100 µM (inactive) | > 100 µM (inactive) | > 100 µM (inactive) |  | > 100 µM (inactive) | > 100 µM (inactive)
CCCCCCCCCCOC1C(C(C)OCCCN(C)C)OC2OC3(CCCCC3)OC21 (stereo not given) | 10.7 µM (inactive) | 3.48 µM (inactive) | 6.37 µM (inactive) | 3.4 µM (inactive) | 2.41 µM (inactive) | 14.3 µM (inactive) | 1.93 µM (inactive) | 3.33 µM (inactive) | 3.08 µM (inactive) | 14.7 µM (inactive) | 11.7 µM (inactive) | 15.3 µM (inactive) |  | 15.8 µM (inactive) |  | 18.1 µM (inactive) | 18.1 µM (inactive) | 20.8 µM (inactive) | 26.2 µM (inactive)
O=[N+]([O-])c1cccc(-c2nc(-c3ccccc3)c(-c3ccccc3)[nH]2)c1 | > 100 µM (inactive) | > 100 µM (inactive) | > 100 µM (inactive) |  |  | > 100 µM (inactive) | > 100 µM (inactive) | > 100 µM (inactive) | > 100 µM (inactive) | > 100 µM (inactive) | > 100 µM (inactive) | > 100 µM (inactive) | > 100 µM (inactive) | > 100 µM (inactive) |  | > 100 µM (inactive) | > 100 µM (inactive) | > 100 µM (inactive) | > 100 µM (inactive)

Reference: ChEMBL document CHEMBL1201862, “PubChem BioAssay data set” (2004)
